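Test compounds were applied to cells in 96-well plates for 48 hours at 5 doses. GI50 is the concentration that inhibits growth by half.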 Calls of active or inactive are those of the source. Cut-off read from the data, not from the text of the source: active = GI50 up to about 1.1 µM and inactive = higher.
Experiments:
Test in all cases: growth of human tumour cells (NCI), 48 h
[1] = system: 786-0
[2] = system: A549
[3] = system: ACHN
[4] = system: CAKI-1
[5] = system: CCRF-CEM
[6] = system: COLO 205
[7] = system: DLD-1
[8] = system: DMS-114
[9] = system: DMS-273
[10] = system: HCC 2998
[11] = system: HCT-116
[12] = system: HCT-15
[13] = system: HL-60
[14] = system: HOP-62
[15] = system: HOP-92
[16] = system: HT-29
[17] = system: IGROV-1
[18] = system: K562
[19] = system: KM-20L2
[20] = system: KM12
[21] = system: LXFL 529
[22] = system: M14
[23] = system: M19-MEL
[24] = system: MOLT-4
[25] = system: Malme-3M
[26] = system: NCI-H23
[27] = system: NCI-H460
[28] = system: NCI-H522
[29] = system: OVCAR-3
[30] = system: OVCAR-4
[31] = system: OVCAR-5
[32] = system: OVCAR-8
[33] = system: RPMI-8226
[34] = system: SF-268
[35] = system: SF-295
[36] = system: SF-539
[37] = system: SK-MEL-28
[38] = system: SK-MEL-2
[39] = system: SK-MEL-5
[40] = system: SNB-75
[41] = system: SR
[42] = system: SW-620
[43] = system: TK-10
[44] = system: U-251
[45] = system: UACC-257
[46] = system: UACC-62
[47] = system: A498
[48] = system: BT-549
[49] = system: DU-145
[50] = system: EKVX
[51] = system: Hs-578T
[52] = system: LOX IMVI
[53] = system: MCF7
[54] = system: MDA-MB-231
[55] = system: MDA-MB-435
[56] = system: MDA-N
[57] = system: NCI-H226
[58] = system: NCI/ADR-RES
[59] = system: PC-3
[60] = system: RXF 393
[61] = system: SK-OV-3
[62] = system: SN12C
[63] = system: SNB-19
[64] = system: T47D
[65] = system: UO-31

SMILES: COP(=O)(OC)/C(=N\Nc1ccc([N+](=O)[O-])cc1)NCc1ccccc1
- GI50 [1]: 34300 nM (inactive)
- GI50 [2]: 31300 nM (inactive)
- GI50 [3]: 28000 nM (inactive)
- GI50 [4]: 38600 nM (inactive)
- GI50 [5]: 20600 nM (inactive)
- GI50 [6]: 46300 nM (inactive)
- GI50 [7]: 33300 nM (inactive)
- GI50 [8]: 21400 nM (inactive)
- GI50 [9]: 36300 nM (inactive)
- GI50 [10]: 62500 nM (inactive)
- GI50 [11]: 21000 nM (inactive)
- GI50 [12]: 32400 nM
- GI50 [13]: 21200 nM (inactive)
- GI50 [14]: 23600 nM (inactive)
- GI50 [15]: 18800 nM (inactive)
- GI50 [16]: 43300 nM (inactive)
- GI50 [17]: 30800 nM (inactive)
- GI50 [18]: 27500 nM (inactive)
- GI50 [19]: 30100 nM (inactive)
- GI50 [20]: 24500 nM (inactive)
- GI50 [21]: 31800 nM (inactive)
- GI50 [22]: 21400 nM (inactive)
- GI50 [23]: 37300 nM (inactive)
- GI50 [24]: 25800 nM (inactive)
- GI50 [25]: 38500 nM (inactive)
- GI50 [26]: 18900 nM (inactive)
- GI50 [27]: 27800 nM (inactive)
- GI50 [28]: 13400 nM (inactive)
- GI50 [29]: 33400 nM (inactive)
- GI50 [30]: 24500 nM (inactive)
- GI50 [31]: 40300 nM (inactive)
- GI50 [32]: 30500 nM (inactive)
- GI50 [33]: 19200 nM (inactive)
- GI50 [34]: 23700 nM (inactive)
- GI50 [35]: 25800 nM (inactive)
- GI50 [36]: 17700 nM (inactive)
- GI50 [37]: 30800 nM (inactive)
- GI50 [38]: 23000 nM (inactive)
- GI50 [39]: 17500 nM (inactive)
- GI50 [40]: 11200 nM (inactive)
- GI50 [41]: 20300 nM (inactive)
- GI50 [42]: 35600 nM (inactive)
- GI50 [43]: 30000 nM (inactive)
- GI50 [44]: 23400 nM (inactive)
- GI50 [45]: 21800 nM (inactive)
- GI50 [46]: 28000 nM (inactive)

SMILES: COC12OC3CC4(C)C(=CC3OC(OC(C)C1O)C2O)CCC1C4CCC2(C)C(c3ccc(=O)oc3)CCC12O (stereo not given)
- GI50 [1]: 1.34 nM (active)
- GI50 [47]: 3.09 nM (active)
- GI50 [2]: 1.19 nM (active)
- GI50 [3]: 1.81 nM (active)
- GI50 [48]: 1.43 nM (active)
- GI50 [4]: 1.47 nM (active)
- GI50 [5]: 1.25 nM (active)
- GI50 [6]: 1.96 nM (active)
- GI50 [49]: 1.29 nM (active)
- GI50 [50]: < 1 nM (active)
- GI50 [10]: 3.38 nM (active)
- GI50 [11]: 1.36 nM (active)
- GI50 [12]: 2.16 nM
- GI50 [13]: 1.39 nM (active)
- GI50 [14]: 1.37 nM (active)
- GI50 [15]: 5.35 nM (active)
- GI50 [16]: 1.39 nM (active)
- GI50 [51]: < 1 nM (active)
- GI50 [17]: 1.71 nM (active)
- GI50 [18]: 2.37 nM (active)
- GI50 [20]: 2.47 nM (active)
- GI50 [52]: 1.37 nM (active)
- GI50 [22]: 2.3 nM (active)
- GI50 [53]: 1.78 nM (active)
- GI50 [54]: 2.81 nM (active)
- GI50 [55]: 2.16 nM (active)
- GI50 [56]: 2.15 nM (active)
- GI50 [24]: 1.05 nM (active)
- GI50 [25]: 1.68 nM (active)
- GI50 [57]: 2.46 nM (active)
- GI50 [26]: 1.25 nM (active)
- GI50 [27]: 1.4 nM (active)
- GI50 [28]: < 1 nM (active)
- GI50 [58]: 1.51 nM (active)
- GI50 [29]: 1.55 nM (active)
- GI50 [30]: 1.26 nM (active)
- GI50 [31]: 1.32 nM (active)
- GI50 [32]: 1.44 nM (active)
- GI50 [59]: 1.42 nM (active)
- GI50 [33]: 1.77 nM (active)
- GI50 [60]: 2.34 nM (active)
- GI50 [34]: 1.05 nM (active)
- GI50 [35]: 1.76 nM (active)
- GI50 [36]: 1.26 nM (active)
- GI50 [37]: 3.85 nM (active)
- GI50 [38]: 2.05 nM (active)
- GI50 [39]: < 1 nM (active)
- GI50 [61]: 2.89 nM (active)
- GI50 [62]: < 1 nM (active)
- GI50 [63]: 2.13 nM (active)
- GI50 [40]: 2.02 nM (active)
- GI50 [41]: 1.4 nM (active)
- GI50 [42]: 1.78 nM (active)
- GI50 [64]: 2.27 nM (active)
- GI50 [43]: 1.22 nM (active)
- GI50 [44]: 1.42 nM (active)
- GI50 [45]: 2.83 nM (active)
- GI50 [46]: 2.33 nM (active)
- GI50 [65]: 1.7 nM (active)
